Our source for the TD50 and carcinogen call values is PubChem BioAssay AID1745844 (Carcinogenic Potency Database (CPDB), 2022).

The data set deals with rodent lifetime carcinogenesis bioassay, tumor incidence TD50. Briefly: carcinogenic potency in animals, long-term in vivo studies, CPDB compilation (AID 1745844).

Active and inactive are the calls of the source. How the calls were made is not given here.

For orientation: TD50 means the dose at which the toxic effect under study appears in half of the subjects. As for `Cc1ncc([N+](=O)[O-])n1CCO`, the TD50 runs as follows: (mouse, strain Swiss, females, in feed, site: all sites, lesion: malignant lymphoma, dosed 122 weeks, study length 128 weeks) 1300 mg/kg/day; (mouse, strain Swiss, females, in feed, site: liver, lesion: several types, types named in the paper, dosed 122 weeks, study length 128 weeks) 24200 mg/kg/day (inactive); (mouse, strain Swiss, females, in feed, site: lung, lesion: several types, types named in the paper, dosed 122 weeks, study length 128 weeks) 937 mg/kg/day; (mouse, strain Swiss, males, in feed, site: liver, lesion: several types, types named in the paper, dosed 116 weeks, study length 124 weeks) 20700 mg/kg/day (inactive); (mouse, strain Swiss, males, in feed, site: lung, lesion: several types, types named in the paper, dosed 116 weeks, study length 124 weeks) 347 mg/kg/day; (rat, strain Sas:MRC(WI)BR, females, in feed, site: any site (literature study), lesion: several types, types named in the paper, dosed 147 weeks, study length 151 weeks) 139 mg/kg/day. Moreover, the TD50 was 1860 mg/kg/day (rat, strain Sas:MRC(WI)BR, females, in feed, site: liver, lesion: hepatocellular carcinoma, dosed 147 weeks, study length 151 weeks); 431 mg/kg/day (rat, strain Sas:MRC(WI)BR, females, in feed, site: mammary gland, lesion: fibroadenoma, dosed 147 weeks, study length 151 weeks); 446 mg/kg/day (rat, strain Sas:MRC(WI)BR, females, in feed, site: mammary gland, lesion: several types, types named in the paper, dosed 147 weeks, study length 151 weeks); 4050 mg/kg/day (rat, strain Sas:MRC(WI)BR, females, in feed, site: subcutaneous tissue, lesion: several types, types named in the paper, dosed 147 weeks, study length 151 weeks); 2970 mg/kg/day (inactive) (rat, strain Sas:MRC(WI)BR, females, in feed, site: uterus, lesion: several types, types named in the paper, dosed 147 weeks, study length 151 weeks); 211 mg/kg/day (rat, strain Sas:MRC(WI)BR, males, in feed, site: any site (literature study), lesion: several types, types named in the paper, dosed 140 weeks, study length 144 weeks). Besides, the TD50 (rat, strain Sas:MRC(WI)BR, males, in feed, site: liver, lesion: hepatocellular carcinoma, dosed 140 weeks, study length 144 weeks) stood at 45900 mg/kg/day; the TD50 (rat, strain Sas:MRC(WI)BR, males, in feed, site: mammary gland, lesion: fibroadenoma, dosed 140 weeks, study length 144 weeks) stood at 2490 mg/kg/day; the TD50 (rat, strain Sas:MRC(WI)BR, males, in feed, site: pituitary gland, lesion: several types, types named in the paper, dosed 140 weeks, study length 144 weeks) was 731 mg/kg/day; the TD50 (rat, strain Sas:MRC(WI)BR, males, in feed, site: subcutaneous tissue, lesion: several types, types named in the paper, dosed 140 weeks, study length 144 weeks) came to 2360 mg/kg/day; the TD50 (rat, strain Sas:MRC(WI)BR, males, in feed, site: testis, lesion: several types, types named in the paper, dosed 140 weeks, study length 144 weeks) is 993 mg/kg/day; the TD50 (rat, strain Sprague-Dawley, females, in feed, site: any site (literature study), lesion: several types, types named in the paper, dosed 66 weeks, study length 75 weeks) is 61.1 mg/kg/day (inactive). In addition, the TD50 (rat, strain Sprague-Dawley, females, in feed, site: uterus, lesion: adenomyoma, dosed 66 weeks, study length 75 weeks) was 180 mg/kg/day (inactive). Also, the carcinogen call (rat, strain Sas:MRC(WI)BR, females, in feed, site: pituitary gland, lesion: several types, types named in the paper, dosed 147 weeks, study length 151 weeks) is “negative (inactive)”.
Consider `CN(N=O)C(=O)NCCC[C@H](N)C(=O)O`, for which the TD50 reads like this: (rat, strain Wistar albino, females, i.p., site: kidney, lesion: epithelial neoplasm, dosed 26 weeks, study length 52 weeks) 0.633 mg/kg/day; (rat, strain Wistar albino, females, i.p., site: kidney, lesion: mesenchymal neoplasm, dosed 26 weeks, study length 52 weeks) 0.633 mg/kg/day; (rat, strain Wistar albino, females, i.p., site: pancreas, lesion: adenocarcinoma in adenomatous polyp, dosed 26 weeks, study length 52 weeks) 11 mg/kg/day; (rat, strain Wistar albino, females, i.p., site: skin, lesion: neoplasm, dosed 26 weeks, study length 52 weeks) 1.42 mg/kg/day; (rat, strain Wistar albino, males, i.p., site: Zymbal's gland, lesion: carcinoma, dosed 26 weeks, study length 52 weeks) 11.8 mg/kg/day; (rat, strain Wistar albino, males, i.p., site: kidney, lesion: epithelial neoplasm, dosed 26 weeks, study length 52 weeks) 1.04 mg/kg/day. For the same compound, the TD50 is 1.57 mg/kg/day (rat, strain Wistar albino, males, i.p., site: kidney, lesion: mesenchymal neoplasm, dosed 26 weeks, study length 52 weeks); 11 mg/kg/day (rat, strain Wistar albino, males, i.p., site: pancreas, lesion: adenocarcinoma, dosed 26 weeks, study length 52 weeks); 5.25 mg/kg/day (rat, strain Wistar albino, males, i.p., site: pancreas, lesion: several types, types named in the paper, dosed 26 weeks, study length 52 weeks); 1.04 mg/kg/day (rat, strain Wistar albino, males, i.p., site: skin, lesion: neoplasm, dosed 26 weeks, study length 52 weeks). Further, where the note is “rat, strain Wistar albino, females, i.p., site: mammary tissue, wider than the gland, lesion: several types, types named in the paper, dosed 26 weeks, study length 52 weeks”, the carcinogen call is “positive”.
Regarding `CC(O)CN(CCO)N=O` (stereo unspecified), the TD50 by setting is: (rat, strain Fischer 344, females, in drinking water, site: esophagus, lesion: several types, types named in the paper, dosed 50 weeks, study length 75 weeks) 6.74 mg/kg/day; (rat, strain Fischer 344, females, in drinking water, site: liver, lesion: angiosarcoma, dosed 50 weeks, study length 75 weeks) 4.5 mg/kg/day; (rat, strain Fischer 344, females, in drinking water, site: liver, lesion: hepatocellular carcinoma, dosed 50 weeks, study length 75 weeks) 1.02 mg/kg/day; (rat, strain Fischer 344, females, in drinking water, site: liver, lesion: several types, types named in the paper, dosed 50 weeks, study length 75 weeks) 1.12 mg/kg/day; (rat, strain Fischer 344, females, in drinking water, site: nasal cavity, lesion: olfactory carcinoma, dosed 50 weeks, study length 75 weeks) 5.44 mg/kg/day.
In the case of `C#C[C@]1(OC(C)=O)CC[C@H]2[C@@H]3CCC4=C[C@@H](OC(C)=O)CC[C@@H]4[C@H]3CC[C@@]21C`, the carcinogen call (rat, strain Wistary/NIN, females, by gavage, site: liver, lesion: one or several types, types not named, dosed 60 weeks, study length 60 weeks) is “negative (inactive)”.
Regarding `O=NN1CCC(O)C1` (stereo unspecified), the TD50 runs as follows: (rat, strain Sprague-Dawley, both sexes, in drinking water, site: any site (literature study), lesion: malignant tumor, dosed 112 weeks, study length 112 weeks) 7.65 mg/kg/day; (rat, strain Sprague-Dawley, both sexes, in drinking water, site: liver, lesion: hepatocellular carcinoma, dosed 112 weeks, study length 112 weeks) 8.11 mg/kg/day.
`O=S(=O)(Oc1ccc(Cl)cc1Cl)c1ccccc1`: the TD50 by setting is: (mouse, strain B6AKF1, females, oral dosing, site: any site (literature study), lesion: several types, types named in the paper, dosed 76 weeks, study length 76 weeks) 867 mg/kg/day (inactive); (mouse, strain B6AKF1, females, oral dosing, site: lung, lesion: several types, types named in the paper, dosed 76 weeks, study length 76 weeks) 1920 mg/kg/day (inactive); (mouse, strain B6AKF1, males, oral dosing, site: any site (literature study), lesion: several types, types named in the paper, dosed 76 weeks, study length 76 weeks) 1680 mg/kg/day (inactive); (mouse, strain B6AKF1, males, oral dosing, site: lung, lesion: adenoma, dosed 76 weeks, study length 76 weeks) 866 mg/kg/day (inactive); (mouse, strain B6C3F1, females, oral dosing, site: any site (literature study), lesion: several types, types named in the paper, dosed 76 weeks, study length 76 weeks) 929 mg/kg/day (inactive); (mouse, strain B6C3F1, females, oral dosing, site: lung, lesion: adenoma, dosed 76 weeks, study length 76 weeks) 1920 mg/kg/day (inactive). The TD50 is, setting by setting: (mouse, strain B6C3F1, males, oral dosing, site: any site (literature study), lesion: several types, types named in the paper, dosed 76 weeks, study length 76 weeks) 218 mg/kg/day (inactive); (mouse, strain B6C3F1, males, oral dosing, site: liver, lesion: hepatoma, dosed 76 weeks, study length 76 weeks) 266 mg/kg/day (inactive); (mouse, strain B6C3F1, males, oral dosing, site: lung, lesion: adenoma, dosed 76 weeks, study length 76 weeks) 924 mg/kg/day (inactive). Further, the carcinogen call is, setting by setting: (mouse, strain B6AKF1, females, oral dosing, site: liver, lesion: hepatoma, dosed 76 weeks, study length 76 weeks) “negative (inactive)”; (mouse, strain B6AKF1, males, oral dosing, site: liver, lesion: hepatoma, dosed 76 weeks, study length 76 weeks) “negative (inactive)”; (mouse, strain B6C3F1, females, oral dosing, site: liver, lesion: hepatoma, dosed 76 weeks, study length 76 weeks) “negative (inactive)”.
